These compounds were tested on HCT116 colorectal cancer cells (assay: Cisplatin sensitization assay (96 h cell viability MTS)). Conditions: 96 h MTS, compound plus Cisplatin.
Type: cell-based
Outline: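 Test compound and cisplatin were added together as a full matrix of 2-fold serial dilutions, each from a top final concentration of 10 μM. Cells were incubated 96 h at 37° C in 5% CO2, then viability was read by MTS after a further 1 h incubation.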
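Further: compound concentration needed to lower the Cisplatin-alone IC50 by a set fold.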

| Compound | Cisplatin Sensitization Assay |
| --- | --- |
| CN1CCC(C(=O)N2CCN(c3c(F)cncc3NC(=O)c3c(N)nn4cc(F)cnc34)CC2)CC1 [I-N-128, 2-amino-6-fluoro-N-(5-fluoro-4-(4-(1-methylpiperidine-4-carbonyl)piperazin-1-yl)pyridin-3-yl)pyrazolo[1,5-a]pyrimidine-3-carboxamide] | +++ (Compounds with a Cisplatin sensitization value of <0.02 μM are marked with “+++.”) |
| N#CCc1cnc2c(C(=O)Nc3cnccc3O[C@H]3CCNC3)c(N)nn2c1 [I-O-86, (S)-2-amino-6-(cyanomethyl)-N-(4-(pyrrolidin-3-yloxy)pyridin-3-yl)pyrazolo[1,5-a]pyrimidine-3-carboxamide] | ++ (Compounds with a Cisplatin sensitization value >0.02 μM but <0.2 μM are marked with “++.”) |
| Nc1nn2cc(F)cnc2c1C(=O)Nc1cnccc1N1CCN(S(=O)(=O)C2CCOC2)CC1 (centres unmarked) [I-N-179, 2-amino-6-fluoro-N-(4-(4-((tetrahydrofuran-3-yl)sulfonyl)piperazin-1-yl)pyridin-3-yl)pyrazolo[1,5-a]pyrimidine-3-carboxamide] | +++ (Compounds with a Cisplatin sensitization value of <0.02 μM are marked with “+++.”) |
| Nc1nn2cc(F)cnc2c1C(=O)Nc1cnccc1O[C@H]1CCCNC1 [I-O-85, (S)-2-amino-6-fluoro-N-(4-(piperidin-3-yloxy)pyridin-3-yl)pyrazolo[1,5-a]pyrimidine-3-carboxamide] | +++ (Compounds with a Cisplatin sensitization value of <0.02 μM are marked with “+++.”) |
| Nc1nn2cc(Cl)cnc2c1C(=O)Nc1cnccc1N1CCC(N)CC1 [I-N-86, 2-amino-N-(4-(4-aminopiperidin-1-yl)pyridin-3-yl)-6-chloropyrazolo[1,5-a]pyrimidine-3-carboxamide] | +++ (Compounds with a Cisplatin sensitization value of <0.02 μM are marked with “+++.”) |
| CN1CCN(c2c(NC(=O)c3c(N)nn4cc(F)cnc34)cncc2C2CC2)CC1 [I-N-5, 2-amino-N-(5-cyclopropyl-4-(4-methylpiperazin-1-yl)pyridin-3-yl)-6-fluoropyrazolo[1,5-a]pyrimidine-3-carboxamide] | ++ (Compounds with a Cisplatin sensitization value >0.02 μM but <0.2 μM are marked with “++.”) |
| Nc1nn2cc(F)cnc2c1C(=O)Nc1cncc(Cl)c1N1CCN(C2CCOC2)CC1 (centres unmarked) [I-N-124, 2-amino-N-(5-chloro-4-(4-(tetrahydrofuran-3-yl)piperazin-1-yl)pyridin-3-yl)-6-fluoropyrazolo[1,5-a]pyrimidine-3-carboxamide] | +++ (Compounds with a Cisplatin sensitization value of <0.02 μM are marked with “+++.”) |
| Nc1nn2cc(F)cnc2c1C(=O)Nc1cncc(F)c1OC1CCN(C2COC2)CC1 [I-O-91, 2-amino-6-fluoro-N-(5-fluoro-4-((1-(oxetan-3-yl)piperidin-4-yl)oxy)pyridin-3-yl)pyrazolo[1,5-a]pyrimidine-3-carboxamide] | ++ (Compounds with a Cisplatin sensitization value >0.02 μM but <0.2 μM are marked with “++.”) |
| CC1(C)CN(c2ccncc2NC(=O)c2c(N)nn3cc(F)cnc23)CCS1(=O)=O [I-N-252, 2-amino-N-(4-(2,2-dimethyl-1,1-dioxidothiomorpholino)pyridin-3-yl)-6-fluoropyrazolo[1,5-a]pyrimidine-3-carboxamide] | +++ (Compounds with a Cisplatin sensitization value of <0.02 μM are marked with “+++.”) |
| CN1CCCN(C(=O)C2CCN(c3c(F)cncc3NC(=O)c3c(N)nn4cc(F)cnc34)CC2)CC1 [I-G-6, 2-amino-6-fluoro-N-(5-fluoro-4-(4-(4-methyl-1,4-diazepane-1-carbonyl)piperidin-1-yl)pyridin-3-yl)pyrazolo[1,5-a]pyrimidine-3-carboxamide] | +++ (Compounds with a Cisplatin sensitization value of <0.02 μM are marked with “+++.”) |
| CN(C)C(=O)C1CN(c2ccncc2NC(=O)c2c(N)nn3cc(F)cnc23)CCO1 (centres unmarked) [I-N-234, 4-(3-(2-amino-6-fluoropyrazolo[1,5-a]pyrimidine-3-carboxamido)pyridin-4-yl)-N,N-dimethylmorpholine-2-carboxamide] | + (Compounds with a Cisplatin sensitization value >0.2 μM but <5 μM are marked with “+.”) |
| CC1CN(c2ccncc2NC(=O)c2c(N)nn3cc(Cl)cnc23)CCN1C (centres unmarked) [I-N-54, 2-amino-6-chloro-N-(4-(3,4-dimethylpiperazin-1-yl)pyridin-3-yl)pyrazolo[1,5-a]pyrimidine-3-carboxamide] | +++ (Compounds with a Cisplatin sensitization value of <0.02 μM are marked with “+++.”) |
| Nc1nn2cc(F)cnc2c1C(=O)Nc1cnccc1O[C@H]1Cc2nccn2C1 [I-O-16, (S)-2-amino-N-(4-((6,7-dihydro-5H-pyrrolo[1,2-a]imidazol-6-yl)oxy)pyridin-3-yl)-6-fluoropyrazolo[1,5-a]pyrimidine-3-carboxamide] | +++ (Compounds with a Cisplatin sensitization value of <0.02 μM are marked with “+++.”) |
| CN(C)CC1CCN(c2ccncc2NC(=O)c2c(N)nn3cc(F)cnc23)CC1 [I-N-267, 2-amino-N-(4-(4-((dimethylamino)methyl)piperidin-1-yl)pyridin-3-yl)-6-fluoropyrazolo[1,5-a]pyrimidine-3-carboxamide] | +++ (Compounds with a Cisplatin sensitization value of <0.02 μM are marked with “+++.”) |
| Cc1cncnc1-c1ccncc1NC(=O)c1c(N)nn2cc(F)cnc12 [I-C-67, 2-amino-6-fluoro-N-(4-(5-methylpyrimidin-4-yl)pyridin-3-yl)pyrazolo[1,5-a]pyrimidine-3-carboxamide] | ++ (Compounds with a Cisplatin sensitization value >0.02 μM but <0.2 μM are marked with “++.”) |
| CC1(O)CN(C(=O)C2CCN(c3c(F)cncc3NC(=O)c3c(N)nn4cc(F)cnc34)CC2)C1 [I-G-63, 2-amino-6-fluoro-N-(5-fluoro-4-(4-(3-hydroxy-3-methylazetidine-1-carbonyl)piperidin-1-yl)pyridin-3-yl)pyrazolo[1,5-a]pyrimidine-3-carboxamide] | +++ (Compounds with a Cisplatin sensitization value of <0.02 μM are marked with “+++.”) |
| Nc1nn2cc(F)cnc2c1C(=O)Nc1cnccc1-c1ccc(C(=O)N2CCNCC2)cc1 [I-C-44, 2-amino-6-fluoro-N-(4-(4-(piperazine-1-carbonyl)phenyl)pyridin-3-yl)pyrazolo[1,5-a]pyrimidine-3-carboxamide] | +++ (Compounds with a Cisplatin sensitization value of <0.02 μM are marked with “+++.”) |
| Nc1nn2cc(Cl)cnc2c1C(=O)Nc1cnccc1N1CCn2cncc2C1 [I-N-75, 2-amino-6-chloro-N-(4-(5,6-dihydroimidazo[1,5-a]pyrazin-7(8H)-yl)pyridin-3-yl)pyrazolo[1,5-a]pyrimidine-3-carboxamide] | +++ (Compounds with a Cisplatin sensitization value of <0.02 μM are marked with “+++.”) |
| COCC1CN(C(=O)C2CCN(c3c(F)cncc3NC(=O)c3c(N)nn4cc(F)cnc34)CC2)C1 [I-G-98, 2-amino-6-fluoro-N-(5-fluoro-4-(4-(3-(methoxymethyl)azetidine-1-carbonyl)piperidin-1-yl)pyridin-3-yl)pyrazolo[1,5-a]pyrimidine-3-carboxamide] | +++ (Compounds with a Cisplatin sensitization value of <0.02 μM are marked with “+++.”) |
| CN1CC2(CCN(c3ccncc3NC(=O)c3c(N)nn4cc(F)cnc34)CC2)CC1=O [I-N-236, 2-amino-6-fluoro-N-(4-(2-methyl-3-oxo-2,8-diazaspiro[4.5]decan-8-yl)pyridin-3-yl)pyrazolo[1,5-a]pyrimidine-3-carboxamide] | +++ (Compounds with a Cisplatin sensitization value of <0.02 μM are marked with “+++.”) |
| Nc1nn2cc(Cl)cnc2c1C(=O)Nc1cncc(F)c1N1CCC(C(=O)N2CCN3CCC2CC3)CC1 [I-G-87, N-(4-(4-(1,4-diazabicyclo[3.2.2]nonane-4-carbonyl)piperidin-1-yl)-5-fluoropyridin-3-yl)-2-amino-6-chloropyrazolo[1,5-a]pyrimidine-3-carboxamide] | +++ (Compounds with a Cisplatin sensitization value of <0.02 μM are marked with “+++.”) |
| CN1CCN(C(=O)C2(C#N)CCN(c3c(F)cncc3NC(=O)c3c(N)nn4cc(F)cnc34)CC2)CC1 [I-G-25, 2-amino-N-(4-(4-cyano-4-(4-methylpiperazine-1-carbonyl)piperidin-1-yl)-5-fluoropyridin-3-yl)-6-fluoropyrazolo[1,5-a]pyrimidine-3-carboxamide] | +++ (Compounds with a Cisplatin sensitization value of <0.02 μM are marked with “+++.”) |
| Cn1ccnc1-c1ccncc1NC(=O)c1c(N)nn2cc(F)cnc12 [I-C-55, 2-amino-6-fluoro-N-(4-(1-methyl-1H-imidazol-2-yl)pyridin-3-yl)pyrazolo[1,5-a]pyrimidine-3-carboxamide] | + (Compounds with a Cisplatin sensitization value >0.2 μM but <5 μM are marked with “+.”) |
| Cc1nncn1-c1ccncc1NC(=O)c1c(N)nn2cc(F)cnc12 [I-N-263, 2-amino-6-fluoro-N-(4-(3-methyl-4H-1,2,4-triazol-4-yl)pyridin-3-yl)pyrazolo[1,5-a]pyrimidine-3-carboxamide] | + (Compounds with a Cisplatin sensitization value >0.2 μM but <5 μM are marked with “+.”) |
| Nc1nn2cc(F)cnc2c1C(=O)Nc1cncc(F)c1N1CCC(C(=O)NC2COC2)CC1 [I-G-37, 2-amino-6-fluoro-N-(5-fluoro-4-(4-(oxetan-3-ylcarbamoyl)piperidin-1-yl)pyridin-3-yl)pyrazolo[1,5-a]pyrimidine-3-carboxamide] | ++ (Compounds with a Cisplatin sensitization value >0.02 μM but <0.2 μM are marked with “++.”) |
| CN1CCN(c2ccncc2NC(=O)c2c(N)nn3cc(F)cnc23)CC12CCOCC2 [I-N-133, 2-amino-6-fluoro-N-(4-(1-methyl-9-oxa-1,4-diazaspiro[5.5]undecan-4-yl)pyridin-3-yl)pyrazolo[1,5-a]pyrimidine-3-carboxamide] | ++ (Compounds with a Cisplatin sensitization value >0.02 μM but <0.2 μM are marked with “++.”) |

— US10787452B2 (Vertex Pharmaceuticals Incorporated, priority 2012, dated 2020)
